Test results from US20170266151A1, “Novel salts of 3-[(DIMETHYLAMINO)METHYL]-N--1-BENZOFURAN-2-CARBOXAMIDE, related crystalline forms, method for preparing the same and pharmaceutical compositions containing the same” (Pharmacyclics LLC, priority 2014, published 2017).
One block for each compound: values may come before it.

Assays:
[1] = Hygroscopicity by dynamic vapor sorption (DVS); assay type: physicochemical
Description: The hygroscopicity of the crystalline forms of the salts of 3-[(dimethylamino)methyl]-N-{2-[4-(hydroxycarbamoyl)phenoxy]ethyl}-1-benzofuran-2-carboxamide according to the invention was evaluated by dynamic vapor sorption (DVS) using a DVS Intrinsic apparatus. A sample of 5 to 10 mg of the substance, weighed accurately, was disposed in a DVS sample pan operating at 25° C. under controlled humidity. The mass variation was recorded on the basis of a balancing bearing at 50% relative humidity, followed by three subsequent linear phases of increasing (from 50 to 90%), of decreasing (from 90 to 0%) and of increasing (from 0 to 50%) the relative humidity at a speed of 10% per hour. The relative humidity was maintained constant when it reached either 0, or 50, or 90% relative humidity, until the mass variation was less than 0.002% per minute, with a time limit of 15 hours.
The hygroscopicity of the hemipentahydrate crystalline form of the hydrogen sulfate of 3-[(dimethylamino)methyl]-N-{2-[4-(hydroxycarbamoyl)phenoxy]ethyl}-1-benzofuran-2-carboxamide according to the invention was evaluated by dynamic vapor sorption (DVS) using a DVS Intrinsic apparatus. A sample of 5 to 10 mg of the substance, weighed accurately, was disposed in a DVS sample pan operating at 25° C. under controlled humidity. The mass variation was recorded on the basis of a balancing bearing at 50% relative humidity, followed by three subsequent linear phases of increasing (from 50 to 90%), of decreasing (from 90 to 0%) and of increasing (from 0 to 50%) the relative humidity at a speed of 10% per hour. The relative humidity was maintained constant when it reached either 0, or 50, or 90 % relative humidity, until the mass variation is less than 0.002% per minute, with a time limit of 15 hours.

xenograft models = settings: Buggy et al. 2006; cited from earlier work
tumor cells = tumor cells cultured in vitro; Buggy et al. 2006; cited from earlier work
[2] = salt of WO 2004/092115; use on industrial scale difficult; cited from earlier work

mass variation detected by DVS analysis ([1]; exposure to between 0 and 90% relative humidity at 25° C.): less than 0.2%
Compound: CN(C)Cc1c(C(=O)NCCOc2ccc(C(=O)NO)cc2)oc2ccccc12.O=C(O)C(=O)O [Example 3, Oxalate of 3-[(dimethylamino)methyl]-N-{2-[4-(hydroxycarbamoyl)phenoxy]ethyl}-1-benzofuran-2-carboxamide]

Compound: CN(C)Cc1c(C(=O)NCCOc2ccc(C(=O)NO)cc2)oc2ccccc12 [abexinostat, 3-[(Dimethylamino)methyl]-N-{2-[4-(hydroxycarbamoyl)phenoxy]ethyl}-1-benzofuran-2-carboxamide]
effect on tumor growth (xenograft models): inhibit tumor growth
effect on apoptosis (tumor cells): induce apoptosis
effect on cell growth (tumor cells): inhibit cell growth

Compound: CN(C)Cc1c(C(=O)NCCOc2ccc(C(=O)NO)cc2)oc2ccccc12.Cl [hydrochloride, hydrochloride of 3-[(dimethylamino)methyl]-N-{2-[4-(hydroxycarbamoyl)phenoxy]ethyl}-1-benzofuran-2-carboxamide]
hygroscopic properties [2]: hygroscopic

relative humidity beyond which converted into hemiheptahydrate hydrogen sulfate ([1]; DVS, 25° C., increasing humidity): > 70 % relative humidity
Compound: Hydrogen Sulfate of 3-[(dimethylamino)methyl]-N-{2-[4-(hydroxycarbamoyl)phenoxy]ethyl}-1-benzofuran-2-carboxamide [Example 5]

Compound: Hydrogen Sulfate of 3-[(dimethylamino)methyl]-N-{2-[4-(hydroxycarbamoyl)phenoxy]ethyl}-1-benzofuran-2-carboxamide [Example 6]
relative humidity below which dehydrated completely ([1]; DVS, 25° C., decreasing humidity to 0%): Below 20 % relative humidity
